Assay results reported in patent US20250296942A1, “Phosphonate-Based Coordination Complexes and Methods of Preparation and Use Thereof” (University of Puerto Rico, priority 2021, published 2025).
Where two headings read alike, the source gives them in different places.

System: human breast cancer MDA-MB-231 cell line
Test: AlamarBlue cytotoxicity, RISE and nano-Ca@RISE, MDA-MB-231
Format: cell-based
Conditions: for viability at 35 µM / viability at 40 µM / viability at 45 µM / viability at 50 µM / IC50: Homo sapiens; for viability at 35 µM / viability at 40 µM / viability at 45 µM / viability at 50 µM: read-out: Relative cell viability (% RCL), MDA-MB-231
Experimental: Cell culture methods. The MDA-MB-231 cell line was incubated with DMEM, 1% Pen-Strep, and 10% FBS at 37° C. in 5% CO2. The hFOB 1.19 cell line was incubated with 1:1 DMEM:F-12, 0.3 mg/mL G418, and 10% FBS at 34° C. in 5% CO2. Cell passages were performed weekly at 80% of cell confluency, media was exchanged twice a week.
Cell treatments. Both cell lines were treated with RISE (control) and nano-Ca@RISE (experimental). […]. Both cell lines (MDA-MB-231 and hFOB 1.19) were seeded in 96 well plates at 2.5×10^5 cell/mL. The cells were incubated for 24 h at 37° C. (MDA-MB-231) and 34° C. (hFOB 1.19), respectively. After the initial incubation period, both cell lines were treated with 100 μL of the RISE solutions previously prepared, and incubation was performed for 24, 48, and 72 h at the respective incubation temperatures. For both cell lines, media (MDA-MB-231: DMEM, Pen-Strep) and (hFOB 1.19: DMEM, F-12, G418) were used with control groups. AlamarBlue® assay was utilized to determine cell proliferation, for this, 10% of AlamarBlue® solution in PBS was prepared. Finally, the media was removed from the 96 well plates, 100 μL of 10% AlamarBlue® solution was added, and the cells were incubated for 4 h at the same previously mentioned conditions. After the AlamarBlue® assay, the fluorescence (λexc=560 nm, λem=590 nm) was evaluated employing an Infinite M200 PRO Tecan Microplate Reader. […]. The nonlinear regression method using Graph Pad Prism 8 was applied to fit the dose-response curves (% cell live vs concentration) and determined the IC50 values for RISE.
[…]. Treatments at these concentrations were carried out at 24, 48, and 72 h for RISE and nano-Ca@RISE. The cell seeding and AlamarBlue® assay were completed as described above for the IC50 determination in both cell lines. […]. All experiments were performed in triplicates and the data was statistically treated using mean, standard deviation, and the coefficient of variation percentage (% CV).
Cell culture methods for the MDA-MB-231 cell line. This cell line was grown in Dulbecco's Modified Eagle's Medium (DMEM) supplemented with 10% fetal bovine serum (FBS) and 1% penicillin-streptomycin (Pen-Strep), incubated at 37° C. and 5% CO2. Cell passage and cell treatment were performed at 80% of cell confluency. The completed growth media was exchanged every two days.
Cell seeding. The MDA-MB-231 and hFOB 1.19 cell lines were seeded in 96 well plates at a density of 2.5×10^5 cells/mL, incubation was carried out for 24 h at 37° C. for MDA-MB-231 and 34° C. for osteoblast hFOB 1.19, in 5% CO2. The experiments were conducted in triplicates, three 96 well plates were made for each treatment period (24, 48, and 72 h).
Cell treatment. To determine the half-maximal inhibitory concentration (IC50), for both cell lines, two-fold serial dilutions of RISE (0-200 μM) were prepared. To assess the relative cell live (% RCL) were employed selected […] (50, 45, 40, and 35 μM) of RISE and nano-Ca@RISE for MDA-MB-231 and hFOB 1.19 cell lines. For this, after the seeding, 100 μL of RISE and nano-Ca@RISE were used to treat the cells. The control groups were treated with just media. Both cell lines were incubated for 24, 48, and 72 h after RISE and nano-Ca@RISE solutions were added.
AlamarBlue@assay. For both cell lines, after the 24, 48, and 72 h of treatment, the media was removed from the 96 well plates. Subsequently, 100 μL of 10% AlamarBlue® solution was added and incubation was carried out for 4 h. The fluorescence (λexc=570 nm, λem=590 nm) was measured employing an Infinite M200 PRO Tecan Microplate Reader. […]. The IC50 curves and the % RCL values were plotted using the Graph Pad Prism 8 program.

## O=P(O)(O)C(O)(Cc1cccnc1)P(=O)(O)O [RISE, Monosodium risedronate hemipentahydrate]
MDA-MB-231, 24 h, 35 μM, 24 h
  viability at 35 µM: 101 ± 2%
MDA-MB-231, 24 h, 40 μM, 24 h
  viability at 40 µM: 100 ± 2%
MDA-MB-231, 24 h, 24 h
  viability at 45 µM: 100 ± 2%
  viability at 50 µM: 99 ± 2%
MDA-MB-231, 48 h, 35 μM, 48 h
  viability at 35 µM: 100 ± 2%
MDA-MB-231, 48 h, 40 μM, 48 h
  viability at 40 µM: 100 ± 3%
MDA-MB-231, 48 h, 48 h
  viability at 45 µM: 98 ± 2%
  viability at 50 µM: 97 ± 3%
MDA-MB-231, 72 h, 35 μM, 72 h
  viability at 35 µM: ~100%
MDA-MB-231, 72 h, 40 μM, 72 h
  viability at 40 µM: 94 ± 1%
MDA-MB-231, 72 h, 72 h
  viability at 45 µM: 94 ± 2%
  viability at 50 µM: 93 ± 2%
MDA-MB-231, 24 h
  IC50: > 200 µM
MDA-MB-231, 48 h
  IC50: 175 ± 3 µM
MDA-MB-231, 72 h
  IC50: 98 ± 3 µM
MDA-MB-231, 35 μM, 72 h
  Relative cell viability (% RCL): 96 ± 2%
MDA-MB-231, 40 μM, time not stated
  % RCL: ~100%
